Among the test systems are KM-20L2; SNB-78; DLD-1; LXFL 529; HOP-18; DMS-273; XF498; DMS-114.
Assay in all cases: NCI tumour cell line growth inhibition, 48 h

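Method: 48-hour compound exposure of cells in 96-well plates, five concentrations, linear interpolation of endpoints. GI50 is the concentration that inhibits growth by half.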 The source made the active and inactive calls. Cut-off read from the data, not from the text of the source: active = GI50 up to about 1.1 µM and inactive = higher. Some results are limits rather than exact numbers.

In the case of `N/N=C1\C(=O)N(C2CCCCCC2)C(=O)C1C(=O)NC1CCCCCC1` (configuration not stated), the GI50 in the test with KM-20L2 was 19.5 µM (inactive); in the test with SNB-78, 21.8 µM (inactive); with DLD-1, 41.5 µM (inactive); in the test on LXFL 529 it was 22.8 µM (inactive); in the test on HOP-18, 31 µM (inactive).
`Cc1cc(N(CCC#N)CCC#N)ccc1/C=C(\NC(=O)/C=C/c1ccccc1)NC(=O)Nc1ccc(Cl)cc1`: the GI50 is 5.37 µM (inactive) in the test with KM-20L2; > 10 µM (inactive) with SNB-78; 75 µM (inactive) in the test with DLD-1; 0.652 µM (active) in the test with LXFL 529; 5.04 µM (inactive) in the test on DMS-273; > 100 µM (inactive) with XF498. Also, in the test with DMS-114, the GI50 was 17.3 µM (inactive).
For the compound `Cc1cc2c(=O)cc(-c3ccc(Cl)c(Cl)c3)oc2c(C(=O)O)c1C`, the GI50 with KM-20L2, in the test on SNB-78, in the test with DLD-1, with LXFL 529, in the test with XF498 and in the test with DMS-114 was > 100 µM (inactive) each time. For the same compound, the GI50 in the test on HOP-18 is > 100 µM (inactive).
As to `CCC1=CCC(P(=O)(c2ccccc2)c2ccccc2)CC1C` (configuration not stated), the GI50 in the test with KM-20L2 was 37.1 µM (inactive); with SNB-78, 61.2 µM (inactive); in the test on LXFL 529 it was 41.8 µM (inactive); in the test on DMS-273 it was 36.3 µM (inactive); with XF498 it was 40.1 µM (inactive); in the test with DMS-114, 32.9 µM (inactive). Further, the GI50 in the test with HOP-18 is 22.8 µM (inactive).
As for `N#C/N=C(/NCc1ccccc1)N(Cc1ccccc1)Cc1ccccc1`, the GI50 in the test on KM-20L2, with DLD-1, with LXFL 529, with DMS-273, in the test on XF498 and in the test on DMS-114 was > 10 µM (inactive) in each case.
`C[C@H]1C=C2C(=O)O[C@H]3CC[C@@H](C1)[C@@]23O`: the GI50 with KM-20L2 was 4.91 µM (inactive); with SNB-78, 2.82 µM (inactive); in the test with DLD-1 it was 2.7 µM (inactive); in the test on LXFL 529, 2.93 µM (inactive); in the test on DMS-114, 2.62 µM (inactive); in the test with HOP-18 it was 3.18 µM (inactive).
As to `Cc1ccc(C(=O)N(Cc2ccccc2)Cc2ccccc2)cc1/N=N/N(C)C`, the GI50 is 27.2 µM (inactive) in the test with SNB-78, 21.4 µM (inactive) in the test on DLD-1, 6.31 µM (inactive) with LXFL 529 and 41.8 µM (inactive) in the test with DMS-273.
In the case of `CCCN(CCC)c1c([N+](=O)[O-])cc(C(=O)N(C)C)cc1[N+](=O)[O-]`, the GI50 was > 100 µM (inactive) with SNB-78; > 100 µM (inactive) in the test with DLD-1; > 100 µM (inactive) in the test with LXFL 529; 30.2 µM (inactive) in the test on DMS-273; 54.7 µM (inactive) with XF498; 33.4 µM (inactive) in the test on DMS-114.
Take `C/C(CN1C(=O)c2ccccc2C1=O)=N\NS(=O)(=O)c1ccc(C)cc1`: the GI50 in the test on KM-20L2, in the test on SNB-78, with DLD-1, in the test with LXFL 529, in the test on DMS-273 and with HOP-18 was > 100 µM (inactive) throughout.
For `CC(NC(=O)/C(C#N)=C/c1ccc2[nH]ccc2c1)c1ccccc1` (configuration not stated), the GI50 with KM-20L2 was 18.6 µM (inactive); with SNB-78, 38.7 µM (inactive); in the test with DLD-1, 19.1 µM (inactive); in the test with LXFL 529 it was 19.5 µM (inactive); with DMS-273 it was 23.5 µM (inactive); in the test on DMS-114, 22.3 µM (inactive). In addition, the GI50 with HOP-18 is 24.3 µM (inactive).
With `Nc1nc(N)c(CCCCc2ccccc2)c(N)n1`, the GI50 with KM-20L2, in the test with DLD-1, in the test on LXFL 529, in the test with DMS-273, in the test with XF498 and with DMS-114 was > 100 µM (inactive) throughout.

These data come from ChEMBL document CHEMBL1201862, “PubChem BioAssay data set” (2004).
